According to PubChem BioAssay AID1963832 (Molecular Pharmacology Branch, DTP, NCI, 2024):

Test system: 885724-159-R-J1-PDC complex spheroid viability
Assay: Anticancer human tumor 885724-159-R-J1-PDC patient-derived pancreatic adenocarcinoma cell line growth inhibition [POLQ]
Conditions: for IC50: curve of first compound; for viability, T/C: stronger effect = lower value
Procedure, shortened: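 Growth inhibition in 3D: complex spheroids (tumor PDC, HUVEC, MSC) treated with POLQ inhibitor combinations; where Cmax unknown, highest tested concentration 10 microM, except SN-38 at 1 microM.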
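Note: spheroids exposed to compounds for 7 days.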

## O=C(Nc1ccc(O)c(NS(=O)(=O)c2ccc(F)cc2)c1)c1ccc(-c2ccccc2)cc1 + Nc1ccc(C#CCN(C(=O)Cc2ncc(C(F)(F)F)cc2C(F)(F)F)c2ccc(F)cc2)nn1
Second compound 0.0316 µM
  IC50: > 10 µM
Second compound 0.1 µM
  IC50: > 10 µM
Second compound 0.316 µM
  IC50: > 10 µM
Second compound 1 µM
  IC50: > 10 µM
Second compound 3.16 µM
  IC50: > 10 µM
Second compound 10 µM
  IC50: > 10 µM
Second compound 0.0316 µM, first compound 0.0316 µM
  viability, T/C: 97.8%
Second compound 0.0316 µM, first compound 0.1 µM
  viability, T/C: 94.2%
Second compound 0.0316 µM, first compound 0.316 µM
  viability, T/C: 97.4%
Second compound 0.0316 µM, first compound 1 µM
  viability, T/C: 97.6%
Second compound 0.0316 µM, first compound 3.16 µM
  viability, T/C: 110%
Second compound 0.0316 µM, first compound 10 µM
  viability, T/C: 93.3%
Second compound 0.1 µM, first compound 0.0316 µM
  viability, T/C: 102%
Second compound 0.1 µM, first compound 0.1 µM
  viability, T/C: 95.3%
Second compound 0.1 µM, first compound 0.316 µM
  viability, T/C: 112%
Second compound 0.1 µM, first compound 1 µM
  viability, T/C: 101%
Second compound 0.1 µM, first compound 3.16 µM
  viability, T/C: 111%
Second compound 0.1 µM, first compound 10 µM
  viability, T/C: 96.4%
Second compound 0.316 µM, first compound 0.0316 µM
  viability, T/C: 103%
Second compound 0.316 µM, first compound 0.1 µM
  viability, T/C: 93.2%
Second compound 0.316 µM, first compound 0.316 µM
  viability, T/C: 94.7%
Second compound 0.316 µM, first compound 1 µM
  viability, T/C: 103%
Second compound 0.316 µM, first compound 3.16 µM
  viability, T/C: 110%
Second compound 0.316 µM, first compound 10 µM
  viability, T/C: 93.4%
Second compound 1 µM, first compound 0.0316 µM
  viability, T/C: 110%
Second compound 1 µM, first compound 0.1 µM
  viability, T/C: 99.4%
Second compound 1 µM, first compound 0.316 µM
  viability, T/C: 78.1%
Second compound 1 µM, first compound 1 µM
  viability, T/C: 98.3%
Second compound 1 µM, first compound 3.16 µM
  viability, T/C: 101%
Second compound 1 µM, first compound 10 µM
  viability, T/C: 92.1%
Second compound 3.16 µM, first compound 0.0316 µM
  viability, T/C: 97.1%
Second compound 3.16 µM, first compound 0.1 µM
  viability, T/C: 91%
Second compound 3.16 µM, first compound 0.316 µM
  viability, T/C: 87.3%
Second compound 3.16 µM, first compound 1 µM
  viability, T/C: 104%
Second compound 3.16 µM, first compound 3.16 µM
  viability, T/C: 108%
Second compound 3.16 µM, first compound 10 µM
  viability, T/C: 95.7%
Second compound 10 µM, first compound 0.0316 µM
  viability, T/C: 91.2%
Second compound 10 µM, first compound 0.1 µM
  viability, T/C: 98.4%
Second compound 10 µM, first compound 0.316 µM
  viability, T/C: 103%
Second compound 10 µM, first compound 1 µM
  viability, T/C: 98.6%
Second compound 10 µM, first compound 3.16 µM
  viability, T/C: 108%
Second compound 10 µM, first compound 10 µM
  viability, T/C: 86.4%
